Measurements from a melting point compilation (Tetko et al.; mined from patent text by program, amines drawn as free bases though some values may be those of a salt).

| Compound | melting point [°C] |
| --- | --- |
| CCn1c(=O)c2c(nc(/C=C/c3ccc(OCC(=O)O)cc3)n2C)n(CC)c1=O | 268 to 269 |
| COCCNc1nc(Cc2ccc(OC)c(OC)c2)nc2sc(C#N)c(C)c12 | 94 to 97 |
| CCCCCCCCCCCCCCCC(=O)C(O)(O)C(=O)OC(C)(C)C | 49 to 51 |
| CCCCOC(=O)c1cc(OC(=O)OC)c2c(c1)C(=O)c1cccc(OC(=O)OC)c1C2=O | 200 to 202 |
| CCC(=O)c1cc(C2(c3cccc(Br)c3)N=C(N)N(C)C2=O)cn1CC (stereo not drawn) | 100 to 102 |
| CS(=O)CCN1C(=O)CN=C(c2ccccc2)c2cc(Cl)ccc21 (stereo not drawn) | 166 to 167 |
| CO/N=C1\CCCC[C@@H]1NC(=O)c1ncc(O[C@@H](C)C(F)(F)F)c(-c2ccc(Cl)cc2)n1 | 180 to 182 |
| FC(F)(F)c1ccc2ncc(Br)cc2c1 | 79 |
| O=C1NNC2=CC(=O)N(c3ccccc3)c3cc(Cl)ccc3N12 | 110 to 112 |
| CN(C)C=NS(=O)(=O)CCC(C)(C)CCI | 105 to 106 |
| COC(=O)[C@@H]1CSCc2c(O[Si](C)(C)C(C)(C)C)cc(OC)c(C)c2C(=O)OC[C@H](O)C(=O)N1 | 237 to 240 |
| CC(C)c1cc(-c2ccc(F)cc2)cc(-c2ccc(F)cc2)c1C=O | 110 to 112 |
| COc1nc(Cl)cnc1NC(=O)OCC(C)C | 90 to 91 |
| CCCCc1ncc(/C=C(\Cc2cccs2)C(N)=O)n1Cc1cccc(Cl)c1Cl | 185 to 187 |
| Clc1cnc(Sc2cccs2)nc1 | 65 |
| CCCO[C@H]1CC[C@H](c2cnc(-c3ccc(C#N)cc3)nc2)CC1 | 114 |
| CCOC(=O)c1[nH]c2cccc(C)c2c1Sc1ccc(Cl)cc1 | 186 to 188 |
| CC(C)(C)COc1cccc(C[C@@H](NC(=O)c2cccc3c(Cl)cccc23)[C@@H](O)c2cccc(Cl)c2)c1 (racemic) | 142 to 143 |
| CC(=O)Nc1ccc(C#CCCN2CC=C(c3ccccc3)CC2)cc1 | 172 to 173 |
| CCCCCCCCCCCC=CC(O)C(COC1OC(CO)C(O)C(O)C1O)NC(=O)CCCCCCCCCCCCCCC (stereo not drawn) | 207 to 209 |

| Compound | melting point [°C] |
| --- | --- |
| COC(=O)C1=C(C)Nc2ccccc2NC1c1ccccc1[N+](=O)[O-] (stereo not drawn) | 190 to 192 |
| Oc1ccc(-c2ncc3ncc(-c4cccnc4)cc3n2)cc1 | > 268 |
| COCCN1C(=S)N(c2ccc(C#N)c(C(F)(F)F)c2)C(=O)C1(C)C | 98 to 99 |
| CC(C)OC(=O)c1ccc(Nc2cccc(Br)c2)c([N+](=O)[O-])c1 | 162 to 165 |
| CCN(CC)CC1CCCCN1CCCNC(=O)N1c2ccccc2C(=O)Nc2cccnc21 (stereo not drawn) | 160 to 161 |
| O=C(COc1cc(-c2ccccc2)nc2ccccc12)N1CCOCC1 | 145 |
| C[C@H]1[C@@H](O)C(C)(C)C(=O)N1c1ccc(C#N)c(C(F)(F)F)c1 | 120 to 121 |
| CC(C)OC(=O)c1cc(Cl)c(Cl)c(Cl)n1 | 105 to 106 |
| Cc1cc(N2C(=O)N(CCCCCN3C(=O)N(c4ccc(C#N)c(C)c4)C(=O)C3(C)C)C(C)(C)C2=O)ccc1C#N | 148 to 149 |
| CC(C)(C)OC(=O)C[C@H](NC(=O)c1cccc(NC(=O)Cc2ccc(C(=N)N)cc2)c1)C(=O)N[C@@H](Cc1ccccc1)C(=O)OC(C)(C)C | 125 |
| CCCCCCCCOc1ccc2c(OC(C)=O)c3cc4ccccc4cc3c(OC(C)=O)c2c1 | 107 to 111 |
| O=C(C=Cc1cccnc1)NCCCCN1CCN(C(c2ccccc2)c2ccccc2)CC1 | 143 to 144 |
| O=S(=O)(CC(Cl)C(F)=C(F)F)c1ccccc1 (stereo not drawn) | 45 to 47 |
| ClCCN(CCCl)CCCCOc1cccc(Nc2c3ccccc3nc3c(OCCN(CCCl)CCCl)cccc23)c1 | 95 to 96 |
| O=S1c2ccccc2-c2[nH]nc(-c3ccccc3)c21 (stereo not drawn) | 222 to 224 |
| Cc1[nH]cnc1Cc1cccc2c1OC(C)(C)OC2 | 172 to 178 |
| Cc1cc(Oc2ccc(S(C)(=O)=O)nc2)cc2cc(C3=NCC(CC(=O)N4CCS(=O)CC4)S3)[nH]c12 (stereo not drawn) | 157 to 160 |
| CS(=O)(=O)c1ccc(-c2c(-c3ccccc3)c(=O)c2=O)cc1 | 139 to 140 |
| CC(C)(C)OC(=O)N1CCN(c2ccc(S(=O)(=O)c3ccccc3)c(N)c2)CC1 | 135 to 137 |

Next, values leading:

| melting point [°C] | Compound |
| --- | --- |
| 130 to 135 | CC(=O)CC(O)c1ccc(-c2ccc(N3C[C@H](Cn4ccnn4)OC3=O)cc2F)cn1 (stereo partly drawn) |
| 145 to 146 | CCC(O)(c1cccc(O)c1)c1nccs1 (stereo not drawn) |
| 108 to 110 | COC(=O)c1cc2cc(OC)c(OCCCl)cc2nc1N=CN(C)C |
| 238 to 240 | CC(C)n1nc(-c2nc(C(N)=O)c(N)nc2-c2cccs2)ccc1=O |
| 123 to 124 | O=C1c2ccccc2C(=O)N1CSc1cccnc1 |
| 130 to 131 | CCOC(=O)N1CCc2cc(OC)c(OC)cc2C(Oc2ccc(C(F)(F)F)cc2)C1 (stereo not drawn) |
| 201 to 203 | O=C(CCl)NCc1cc2c(c(Br)c1O)CCCC2=O |
| 78 to 80 | CN1C(=O)C(c2cccc(OCC3CC3)c2)(c2cnn(CC(F)(F)F)c2)N=C1N (stereo not drawn) |
| 61 to 64 | c1ccc(Cc2cccnn2)cc1 |
| 67.2 to 68.2 | CCCC(=O)c1cccc2cc[nH]c12 |
| 213 | CC(C)n1nc(-c2cnc(N)nc2-c2cccs2)ccc1=O |
| 111 to 112 | Cc1cc2ccccc2c(-c2ccccc2I)n1 |
| 156 to 157 | Cc1cc(N2CCC3(CC2)OCCO3)nn2cnnc12 |
| 174 to 176 | O=c1c2ccccc2[nH]c(=S)n1CCCO |
| 105 | CCCCC(CC)COC(=O)Nc1ccc(C=C(C#N)C(=O)OCC)cc1 (stereo not drawn) |
| 138 to 144 | CCOC(=O)C1CC(O)c2c(C)c(O)c(C)c(C)c2O1 (stereo not drawn) |
| 265 to 268 | O=C1Cc2ccc3ccccc3c2C(c2ccccc2F)N1 (stereo not drawn) |
| 57 to 59 | CCOC(=O)CCOc1cccc2c1CCCC2=O |
| 208 to 210 | CN(C(=O)OC(C)(C)C)c1cc(Oc2cc(C(C)(C)C)c(O)cc2C(C)(C)C)ccc1N |
| 185 to 190 | OCc1cc2cccc3cc(-c4ccc(O)cc4)c1n23 |

| melting point [°C] | Compound |
| --- | --- |
| 137 to 140 | CN(C(CCn1c(=O)[nH]c2ccccc2c1=O)C(=O)NO)S(=O)(=O)c1ccc(Oc2cccc(Cl)c2)cc1 (stereo not drawn) |
| 125 to 127 | CC(C)N1CCN(CCN2CCN(c3noc4cc(F)ccc34)CC2)C1=O |
| 72 to 74 | CCCCNc1cccc([N+](=O)[O-])c1C#N |
| 129 to 132 | CCCCCCCCCCCCCCCCCC(=O)Oc1ccc2c(c1)C(=O)c1ccc(OC(=O)CCCCCCCCCCCCCCCCC)cc1C2=O |
| 233 to 234 | O=c1cc2c(nn1-c1ccc(Cl)cc1)-c1ccccc1S(=O)CC2 (stereo not drawn) |
| 93 to 94 | Cc1cc(C)cc(COC(=O)[C@H](Cc2cccc3ccccc23)NC(=O)OC(C)(C)C)c1 |
| 196 to 197 | Cc1nc(N2CCC(Cc3ccc(F)cc3)C2=O)sc1C(=O)NCc1ccc(F)cc1 (stereo not drawn) |
| 101 to 102 | CN(Cc1ccccc1)c1nc(=O)n(C(=O)c2cccs2)cc1F |
| 163 to 164 | O=c1c2ccccc2sc2ccc(S(=O)(=O)C(F)(F)F)cc12 |
| 185 to 187 | COC(=O)[C@H](Cc1ccc(NC(=O)c2cc(C#N)ccc2Cl)cc1)NC(=O)OC(C)(C)C |
| 228 to 230 | C=C(Br)c1cc(O)cc2nc(-c3ccc(O)cc3)oc12 |
| 94 to 101 | CN(Cc1cc2c(=O)c(C(=O)NCc3ccc(Cl)cc3)cn(C)c2o1)CC(O)c1ccco1 (stereo not drawn) |
| 199 to 202 | CC(=O)Nc1cc2c(cc1[N+](=O)[O-])N(C(C)=O)CCO2 |
| 228 to 230 | COc1ccccc1NC(=O)NCc1nnc(C)n1-c1sc(C)c(C)c1C(=O)c1ccc(Cl)cc1 |
| 216 to 218 | COc1cc2c(Nc3ccc(Cl)cc3F)ncnc2cc1OCCCn1ccccc1=O |
| 82 to 84 | CCOC(=O)N[C@@H]1Cc2ccccc2[C@H]1Cl (relative stereo) |
| 171 to 173 | O=C(O)c1cc(Br)ccc1Sc1ccccc1 |
| 197 | CCOP(=O)(Cn1c(=O)c(=O)[nH]c2cc([N+](=O)[O-])ccc21)OCC |
| 139 to 140 | O=C1c2ccccc2C(=O)N1CCc1ccc2c(c1)OCO2 |
| 98 to 100 | CCCCCCCCCCCCCCC1COC2(CC(c3ccccc3)N(O)C(c3ccccc3)C2)O1 (stereo not drawn) |

| melting point [°C] | Compound |
| --- | --- |
| 136 to 137 | C=NOCc1ccc(CCc2csc(NC(C)=O)n2)cc1 |
| 63 | CN(CCCCCNC(=O)NCCCOc1cccc(CN2CCCCC2)c1)CCN(Cc1ccc(F)cc1)c1ccccn1 |
| 118 to 119 | CC(C(=O)O)c1ccc(-c2ccc(F)cc2)c(F)c1 (stereo not drawn) |
| 192 to 193 | N#Cc1cccc(CSc2nnc(-c3ccc4ncc(-c5ccccn5)n4c3)o2)c1 |
| 165 to 167 | CCCCNS(=O)(=O)c1ccc2nc3scc(C)n3c(=O)c2c1 |
| 192 | COc1ccc(-c2cc(N)c(Cl)c(C(=O)O)n2)cc1 |
| 95 to 96 | CCCc1nn(-c2ccc(C(F)(F)F)cc2)cc1CCCOc1c(CC(=O)O)cccc1OC |
| 45 | CCOC(=O)c1cnc2scc(C)n12 |
| 169 to 170 | O=C(O)[C@H](Cc1ccc(F)cc1)[C@@H](O)c1ccc(F)cc1 (racemic) |
| 108 to 110 | CC(CC(C)(C)C)CP(=O)(O)Cc1cc(C(C)(C)C)c(O)c(C(C)(C)C)c1 (stereo not drawn) |
| 179 to 180 | N#Cc1ccc(-c2ccc(OS(N)(=O)=O)cc2)cc1Cn1cncn1 |
| 246 to 249 | Cc1n[nH]c2ccc(-c3ccc4nnn(Cc5ccc6ncccc6c5)c4n3)cc12 |
| 256 to 259 | CCOC(=O)c1cc2c(=O)n(-c3ccccc3)c3ccccc3n2c1 |
| 155 to 160 | CC1CN(C)CCC1Oc1cccc(NC(=O)c2ccc(F)cc2Cl)n1 (stereo not drawn) |
| > 300 | CNc1nc(NS(=O)(=O)c2ccc(N)cc2)cc(N2CCCC2)n1 |
| 294 to 295 | Cc1cc(-c2c(F)cc3c(=O)c(C(=O)O)cn4c3c2S(=O)CC4C)cc(C)n1 (stereo not drawn) |
| 187 to 188 | CC(=O)Nc1c(C(=S)c2ccc(C)cc2)[nH]c2cc(Cl)ccc12 |
| 117 to 118 | COc1cc(CC(CO)NC(=O)c2ccccc2)cc(OC)c1 (stereo not drawn) |
| 262 to 264 | Cc1ccc(-n2c(-c3ccc(Br)cc3)ccc2-c2ccc(Br)cc2)cc1 |
